IC50 data for 27 compounds are collected here from patent publication US10766903B2 (ALMAC DISCOVERY LIMITED, priority 2016, dated 2020).

Structures are written as SMILES. Structures can show the parent of a compound that is named as a salt. Where two headings read alike, the source gives them in different places.

The target of this test is USP7 (Homo sapiens (Human), UniProt Q93009). Nature of the test: USP7 fluorescence polarisation (FP) biochemical assay, ubiquitin-Lys-TAMRA substrate. To be noted: average of at least duplicate experiments. Put shortly:
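Full-length His6-USP7 (2.5 nM) incubated ± inhibitor (8-point dilutions, 200 to 0.1 μM before addition) in 50 mM HEPES pH 7.2, 150 mM NaCl, 0.5 mM EDTA, 5 mM DTT, 0.05% BSA, 0.05% CHAPS. Ubiquitin-Lys-TAMRA cleavage followed by FP (ex 530/em 575 nm) every 15 min for 1.5 h; normalised to no-compound control.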
In general terms: Polarisation of emitted light reports the rotation of a fluorescent probe.

Where [1] appears, read: Table 4, biochemical assay, read-out: USP7 IC50.
Where [2] appears, read: USP7 IC50, Table 4, biochemical assay.

Chain of USP7 (Q93009 whole entry): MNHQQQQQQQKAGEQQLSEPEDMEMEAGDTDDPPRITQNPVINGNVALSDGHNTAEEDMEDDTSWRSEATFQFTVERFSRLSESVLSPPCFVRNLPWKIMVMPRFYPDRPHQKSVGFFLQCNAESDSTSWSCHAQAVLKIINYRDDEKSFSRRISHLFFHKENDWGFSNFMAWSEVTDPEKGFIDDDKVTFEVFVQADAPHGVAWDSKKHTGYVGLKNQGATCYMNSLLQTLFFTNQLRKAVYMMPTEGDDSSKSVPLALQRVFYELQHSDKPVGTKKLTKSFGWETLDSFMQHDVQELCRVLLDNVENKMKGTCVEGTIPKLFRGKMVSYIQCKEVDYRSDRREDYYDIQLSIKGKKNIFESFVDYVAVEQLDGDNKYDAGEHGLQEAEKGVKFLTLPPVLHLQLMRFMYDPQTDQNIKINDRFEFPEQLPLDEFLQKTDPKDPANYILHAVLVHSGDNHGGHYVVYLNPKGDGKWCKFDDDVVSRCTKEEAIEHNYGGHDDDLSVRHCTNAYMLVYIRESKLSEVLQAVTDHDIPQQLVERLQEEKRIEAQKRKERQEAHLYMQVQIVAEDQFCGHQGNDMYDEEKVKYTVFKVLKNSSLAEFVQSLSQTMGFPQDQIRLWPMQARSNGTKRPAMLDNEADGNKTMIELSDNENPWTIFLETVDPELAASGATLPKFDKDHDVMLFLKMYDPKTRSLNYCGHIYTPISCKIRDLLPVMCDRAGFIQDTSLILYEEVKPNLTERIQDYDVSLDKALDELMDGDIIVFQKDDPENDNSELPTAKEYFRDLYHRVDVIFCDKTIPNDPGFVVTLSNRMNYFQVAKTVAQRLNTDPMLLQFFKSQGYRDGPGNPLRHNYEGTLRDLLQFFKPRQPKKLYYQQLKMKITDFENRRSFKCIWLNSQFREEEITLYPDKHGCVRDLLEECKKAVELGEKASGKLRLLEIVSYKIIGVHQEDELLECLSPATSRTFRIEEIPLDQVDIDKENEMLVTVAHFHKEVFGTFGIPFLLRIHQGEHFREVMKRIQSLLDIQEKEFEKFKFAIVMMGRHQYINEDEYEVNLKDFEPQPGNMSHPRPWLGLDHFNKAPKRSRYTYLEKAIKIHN

A word on the IC50: it is the concentration that inhibits the measured activity by half. In the case of `CC1(C(=O)N2CCC(O)(Cn3cnc4c(cc(Cl)n4-c4cccc(-n5cc(F)cn5)c4)c3=O)CC2)CC1` [Example 227, 6-Chloro-7-(3-(4-fluoro-1H-pyrazol-1-yl)phenyl)-3-((4-hydroxy-1-(1-methylcyclopropanecarbonyl)piperidin-4-yl)methyl)-3H-pyrrolo[2,3-d]pyrimidin-4(7H)-one], under setting [1], the IC50 is less than 250 nM.
The same measure, in the same setting: the figure for `Cn1nc2c(=O)n(CC3(O)CCN(C(=O)C[C@H](c4ccccc4)C(F)(F)F)CC3)cnc2c1-c1ccc(CN)c(C(F)(F)F)c1` [Example 123, (R)-3-(4-(Aminomethyl)-3-(trifluoromethyl)phenyl)-6-((4-hydroxy-1-(4,4,4-trifluoro-3-phenylbutanoyl)piperidin-4-yl)methyl)-2-methyl-2H-pyrazolo[4,3-d]pyrimidin-7(6H)-one] is less than 250 nM; for `Cn1nccc1-c1cccc(-n2c(Cl)cc3c(=O)n(CC4(O)CCN(C(=O)C5(C)CC5)CC4)cnc32)c1` [Example 208, 6-Chloro-3-((4-hydroxy-1-(1-methylcyclopropanecarbonyl)piperidin-4-yl)methyl)-7-(3-(1-methyl-1H-pyrazol-5-yl)phenyl)-3H-pyrrolo[2,3-d]pyrimidin-4(7H)-one] it is 250 to 999 nM.
With `C[C@H](CC(=O)N1CCC(O)(Cn2cnc(N3CCC(N)CC3)cc2=O)CC1)c1ccccc1` [Example 48, (R)-6-(4-Aminopiperidin-1-yl)-3-((4-hydroxy-1-(3-phenylbutanoyl)piperidin-4-yl)methyl)pyrimidin-4(3H)-one hydrochloride], the IC50 under setting [2] was in the range of 250 to 999 nM.
Take `Cn1cc(C(=O)N2CCC(O)(Cn3cnc4c(cc(Cl)n4-c4ccc(Cl)cc4)c3=O)CC2)cn1` [Example 229, 6-Chloro-7-(4-chlorophenyl)-3-((4-hydroxy-1-(1-methyl-1H-pyrazole-4-carbonyl)piperidin-4-yl)methyl)-3H-pyrrolo[2,3-d]pyrimidin-4(7H)-one]: the IC50 under setting [1] lay in the range of 250 to 999 nM.
In the case of `O=C(CCC1CCC1)N1CCC(O)(Cn2cnc(NCCN3CCCC3)cc2=O)CC1` [Example 183, 3-((1-(3-Cyclobutylpropanoyl)-4-hydroxypiperidin-4-yl)methyl)-6-((2-(pyrrolidin-1-yl)ethyl)amino)pyrimidin-4(3H)-one], the IC50 under setting [1] was 1000 to 200000 nM.
The same measure, in the same setting: the figure for `CC1(C(=O)N2CCC(O)(Cn3cnc4c(cc(Cl)n4-c4ccc(C5CC5)cc4)c3=O)CC2)CC1` [Example 220, 6-Chloro-7-(4-cyclopropylphenyl)-3-((4-hydroxy-1-(1-methylcyclopropanecarbonyl)piperidin-4-yl)methyl)-3H-pyrrolo[2,3-d]pyrimidin-4(7H)-one] is less than 250 nM.
On the same count and under the same terms, as for `CC1(C(=O)N2CCC(O)(Cn3cnc4c(cc(Cl)n4-c4ccc(F)cc4)c3=O)CC2)CC1` [Example 204, 6-Chloro-7-(4-fluorophenyl)-3-((4-hydroxy-1-(1-methylcyclopropanecarbonyl)piperidin-4-yl)methyl)-3H-pyrrolo[2,3-d]pyrimidin-4(7H)-one], the figure is less than 250 nM.
Take `C[C@H](CC(=O)N1CCC(O)(Cn2cnc(N3CCC4(CCNC4)CC3)cc2=O)CC1)c1ccccc1` [Example 49, (R)-3-((4-Hydroxy-1-(3-phenylbutanoyl)piperidin-4-yl)methyl)-6-(2,8-diazaspiro[4.5]decan-8-yl)pyrimidin-4(3H)-one hydrochloride]: the IC50 under setting [2] was 250 to 999 nM.
For `O=C(CCC1CCC1)N1CCC(O)(Cn2cnc3c(nnn3-c3ccccc3)c2=O)CC1` [Example 186, 6-((1-(3-Cyclobutylpropanoyl)-4-hydroxypiperidin-4-yl)methyl)-3-phenyl-3H-[1,2,3]triazolo[4,5-d]pyrimidin-7(6H)-one], under setting [1], the IC50 lay within 1000 to 200000 nM.
On the same count and under the same terms, the figure for `C[C@H](CC(=O)N1CCC(O)(C(O)c2cnc3ccccn3c2=O)CC1)c1ccccc1` (stereo partly drawn) [Example 101, 3-(Hydroxy(4-hydroxy-1-((R)-3-phenylbutanoyl)piperidin-4-yl)methyl)-4H-pyrido[1,2-a]pyrimidin-4-one] is 1000 to 200000 nM; for `O=C(c1cnc(C2CC2)o1)N1CCC(O)(Cn2cnc3c(cc(Br)n3-c3ccccc3)c2=O)CC1` [Example 222, 6-Bromo-3-((1-(2-cyclopropyloxazole-5-carbonyl)-4-hydroxypiperidin-4-yl)methyl)-7-phenyl-3H-pyrrolo[2,3-d]pyrimidin-4(7H)-one] it is less than 250 nM; for `C[C@H](CC(=O)N1CCC(O)(Cn2cnc(NCCN3CCCCC3)cc2=O)CC1)c1ccccc1` [Example 52, (R)-3-((4-Hydroxy-1-(3-phenylbutanoyl)piperidin-4-yl)methyl)-6-((2-(piperidin-1-yl)ethyl)amino)pyrimidin-4(3H)-one] it is less than 250 nM.
For `O=C(c1cnc(C2CC2)o1)N1CCC(O)(Cn2cnc3c(nnn3-c3ccccc3)c2=O)CC1` [Example 198, 6-((1-(2-Cyclopropyloxazole-5-carbonyl)-4-hydroxypiperidin-4-yl)methyl)-3-phenyl-3H-[1,2,3]triazolo[4,5-d]pyrimidin-7(6H)-one], the IC50 under setting [1] was in the range of 1000 to 200000 nM.
For `C[C@H](CC(=O)N1CCC(O)(C(O)c2cnc3c(-c4ccccc4)cccn3c2=O)CC1)c1ccccc1` (stereo partly drawn) [Example 105, 3-(Hydroxy(4-hydroxy-1-((R)-3-phenylbutanoyl)piperidin-4-yl)methyl)-9-phenyl-4H-pyrido[1,2-a]pyrimidin-4-one], under setting [1], the IC50 was in the range of 1000 to 200000 nM.
With `C[C@H](CC(=O)N1CCC(O)(Cn2cnc(N3CC4(CCOCC4)C3)cc2=O)CC1)c1ccccc1` [Example 174, (R)-3-((4-hydroxy-1-(3-phenylbutanoyl)piperidin-4-yl)methyl)-6-(7-oxa-2-azaspiro[3.5]nonan-2-yl)pyrimidin-4(3H)-one], the IC50 under setting [2] was 250 to 999 nM.
As to `C[C@H](CC(=O)N1CCC(O)(Cn2cnc(NC[C@H](C)N3CCCC3)cc2=O)CC1)c1ccccc1` [Example 59, 3-((4-Hydroxy-1-((R)-3-phenylbutanoyl)piperidin-4-yl)methyl)-6-(((S)-2-(pyrrolidin-1-yl)propyl)amino)pyrimidin-4(3H)-one, Formic Acid], under setting [1], the IC50 is less than 250 nM.
Turning to `C[C@H](CC(=O)N1CCC(O)(Cn2cnc(N[C@@H]3CCCC[C@@H]3N)cc2=O)CC1)c1ccccc1` (racemic) [Example 64, 6-(((±-cis-1,2)-2-Aminocyclohexyl)amino)-3-((4-hydroxy-1-((R)-3-phenylbutanoyl)piperidin-4-yl)methyl)pyrimidin-4(3H)-one, Formic Acid], the IC50 under setting [1] is 250 to 999 nM.
Turning to `COc1cc(-n2c(Cl)cc3c(=O)n(CC4(O)CCN(C(=O)c5cnc(C6CC6)o5)CC4)cnc32)ccc1F` [Example 206, 6-Chloro-3-((1-(2-cyclopropyloxazole-5-carbonyl)-4-hydroxypiperidin-4-yl)methyl)-7-(4-fluoro-3-methoxyphenyl)-3H-pyrrolo[2,3-d]pyrimidin-4(7H)-one], the IC50 under setting [1] is less than 250 nM.
Turning to `NCc1ccc(-n2cnc3c(=O)n(CC4(O)CCN(C(=O)C[C@H](c5ccccc5)C(F)(F)F)CC4)cnc32)cc1` [Example 77, (R)-9-(4-(Aminomethyl)phenyl)-1-((4-hydroxy-1-(4,4,4-trifluoro-3-phenylbutanoyl)piperidin-4-yl)methyl)-1H-purin-6(9H)-one], the IC50 under setting [1] is less than 250 nM.
Same read-out and setting: as for `C[C@H](CN1CCCC1)Nc1cc(=O)n(CC2(O)CCN(C(=O)C[C@@H](C)c3ccccc3)CC2)cn1` [Example 60, 3-((4-Hydroxy-1-((R)-3-phenylbutanoyl)piperidin-4-yl)methyl)-6-(((R)-1-(pyrrolidin-1-yl)propan-2-yl)amino)pyrimidin-4(3H)-one, Formic Acid], the figure is less than 250 nM.
For the compound `C[C@H](CC(=O)N1CCC(O)(Cn2cnc(-c3cnn(CCN(C)C)c3)cc2=O)CC1)c1ccccc1` [Example 54, (R)-6-(1-(2-(Dimethylamino)ethyl)-1H-pyrazol-4-yl)-3-((4-hydroxy-1-(3-phenylbutanoyl)piperidin-4-yl)methyl)pyrimidin-4(3H)-one, Formic Acid], the IC50 under setting [2] was in the range of 250 to 999 nM.
For the compound `Cn1nccc1-c1cccc(-n2c(Cl)cc3c(=O)n(CC4(O)CCN(C(=O)c5cnc(C6CC6)o5)CC4)cnc32)c1` [Example 210, 6-Chloro-3-((1-(2-cyclopropyloxazole-5-carbonyl)-4-hydroxypiperidin-4-yl)methyl)-7-(3-(1-methyl-1H-pyrazol-5-yl)phenyl)-3H-pyrrolo[2,3-d]pyrimidin-4(7H)-one], the IC50 under setting [1] was 250 to 999 nM.
Take `CC(C)NCCNc1cc(=O)n(CC2(O)CCN(C(=O)C[C@@H](C)c3ccccc3)CC2)cn1` [Example 142, (R)-3-((4-hydroxy-1-(3-phenylbutanoyl)piperidin-4-yl)methyl)-6-((2-(isopropylamino)ethyl)amino)pyrimidin-4(3H)-one]: the IC50 under setting [2] was in the range of 250 to 999 nM.
Turning to `C=C(C)[C@@H](CC(=O)N1CCC(O)(Cn2cnc3c(-c4ccccc4)n(C)nc3c2=O)CC1)C(F)(F)F` [Example 36, (R)-6-((4-Hydroxy-1-(4-methyl-3-(trifluoromethyl)pent-4-enoyl)piperidin-4-yl)methyl)-2-methyl-3-phenyl-2H-pyrazolo[4,3-d]pyrimidin-7(6H)-one], the IC50 under setting [1] lay in the range of 1000 to 200000 nM.
The same measure, in the same setting: the figure for `C[C@H](CC(=O)N1CCC(O)(Cn2cnc(/C=C/CN3CC[C@@H](N)C3)cc2=O)CC1)c1ccccc1` [Example 55, 6-((E)-3-((R)-3-Aminopyrrolidin-1-yl)prop-1-en-1-yl)-3-((4-hydroxy-1-((R)-3-phenylbutanoyl)piperidin-4-yl)methyl)pyrimidin-4(3H)-one, Formic Acid] is 1000 to 200000 nM; for `C[C@H](CC(=O)N1CCC(O)(Cn2cnc(N3CCOC(C)(C(=O)N(C)C)C3)cc2=O)CC1)c1ccccc1` (stereo partly drawn) [Example 148, 4-(1-((4-hydroxy-1-((R)-3-phenylbutanoyl)piperidin-4-yl)methyl)-6-oxo-1,6-dihydropyrimidin-4-yl)-N,N,2-trimethylmorpholine-2-carboxamide] it is 1000 to 200000 nM.
